From the Deep4Chem optical property database

Assay: solvent given as SMILES

Question: Which results are given for `COCCOc1cc(C=O)c(OCCOC)cc1C=O`?
Answer: absorption maximum (in CC(C)(C)O): 393 nm; absorption maximum (in CC(C)CO): 391 nm; absorption maximum (in CC(C)O): 390 nm; absorption maximum (in CCCCO): 363 nm; absorption maximum (in CCCO): 363 nm; absorption maximum (in CCO): 362 nm; absorption maximum (in CN(C)C=O): 392 nm; absorption maximum (in CNC=O): 351 nm; absorption maximum (in CO): 353 nm; absorption maximum (in NC=O): 354 nm; absorption maximum (in O): 391 nm

Question: Which absorption maximum (in ClC(Cl)Cl) does the source give for `CCCCCCCCC1(CCCCCCCC)c2cc(-c3ccc(C(=O)OC)cc3)ccc2-c2ccc(-c3ccc(C(=O)OC)cc3)cc21` here?
Answer: Its absorption maximum is 341 nm.

Question: Which absorption maximum (in Cc1ccccc1) does the source give for `Cc1ccc2c(c1)C1(c3ccccc3-c3ccccc31)c1cc(C)ccc1N2c1ccc(-c2ncccn2)cc1` here?
Answer: The absorption maximum was 380 nm.

Question: With `CN(CC(O)c1cccc(O)c1)c1ccc([N+](=O)[O-])c(C2CC(c3cccc4ccccc34)=NN2c2ccccc2)c1` (configuration not stated) as the compound, how does the absorption maximum (in C1CCCCC1) read?
Answer: Its absorption maximum is 400 nm.

Question: What about the absorption maximum (in C1CCOC1) of the same compound?
Answer: The absorption maximum was 411 nm.

Question: And the absorption maximum (in C1COCCO1)?
Answer: Its absorption maximum is 396 nm.

Question: What about the absorption maximum (in CC#N) of the same compound?
Answer: Its absorption maximum is 402 nm.

Question: And the absorption maximum (in CC(C)O)?
Answer: Its absorption maximum is 412 nm.

Question: And the absorption maximum (in CCOC(C)=O)?
Answer: The absorption maximum was 418 nm.

Question: And the absorption maximum (in CCOCC)?
Answer: Its absorption maximum is 405 nm.

Question: What about the absorption maximum (in CO) of the same compound?
Answer: Its absorption maximum is 409 nm.

Question: And the absorption maximum (in Cc1ccccc1)?
Answer: The absorption maximum was 414 nm.

Question: And the absorption maximum (in ClC(Cl)Cl)?
Answer: Its absorption maximum is 369 nm.

Question: And the absorption maximum (in O)?
Answer: The absorption maximum was 406 nm.

Question: Which absorption maximum (in ClCCl) does the source give for `C=CCN(CC=C)c1ccc(-c2cc(-c3ccc(N(CC=C)CC=C)cc3)cc(-c3ccc(N(CC=C)CC=C)cc3)c2)cc1` here?
Answer: The absorption maximum was 315.85 nm.

Question: Which absorption maximum (in C1CCOC1) does the source give for `F[B-]1(F)n2c(-c3ccccc3)cc(-c3ccccc3)c2C=C2C(c3ccccc3)=CC(c3ccccc3)=[N+]21` here?
Answer: The absorption maximum was 571 nm.

Question: For `CC(C)[Si](C#Cc1c2ccccc2c(C#C[Si](C(C)C)(C(C)C)C(C)C)c2nc3c(nc12)Cc1ccccc1-3)(C(C)C)C(C)C`, which absorption maximum (in CCCCCC) is on record?
Answer: Its absorption maximum is 486 nm.

Question: What does the source list for `CC(=O)Nc1ccccc1C(=O)OC1CC(C)CCC1C(C)C` (configuration not stated)?
Answer: absorption maximum (in C1CCCCC1): 315 nm; absorption maximum (in CC#N): 310 nm; absorption maximum (in CCO): 310 nm; absorption maximum (in CO): 307 nm; absorption maximum (in Cc1ccccc1): 313 nm; absorption maximum (in ClC(Cl)Cl): 312 nm; absorption maximum (in ClCCl): 310 nm

Question: For `F[B-]1(F)OC(c2cccc(Br)c2)=Cc2ccc3ccccc3[n+]21`, which absorption maximum (in ClC(Cl)Cl) is on record?
Answer: Its absorption maximum is 426 nm.

Question: For `N#Cc1nc(-n2c3ccccc3c3ccccc32)cc(-n2c3ccccc3c3ccccc32)n1`, which absorption maximum (in Cc1ccccc1) is on record?
Answer: Its absorption maximum is 371 nm.

Question: With `CCCCN1C(=O)c2ccc3c4c(Br)cc5c6c(ccc(c7c(Br)cc(c2c37)C1=O)c64)C(=O)N(CCCC)C5=O` as the compound, how does the absorption maximum (in ClC(Cl)Cl) read?
Answer: The absorption maximum was 524 nm.

Question: Which absorption maximum (in C1CCCCC1) does the source give for `O=[N+]([O-])c1ccc(NCCN(Cc2c3ccccc3cc3ccccc23)c2ccc([N+](=O)[O-])cc2[N+](=O)[O-])c([N+](=O)[O-])c1` here?
Answer: Its absorption maximum is 355 nm.

Question: What about the absorption maximum (in C1CCOC1) of the same compound?
Answer: Its absorption maximum is 372 nm.

Question: And the absorption maximum (in CC#N)?
Answer: Its absorption maximum is 371 nm.

Question: What about the absorption maximum (in CC(C)=O) of the same compound?
Answer: Its absorption maximum is 371 nm.

Question: And the absorption maximum (in CCO)?
Answer: The absorption maximum was 368 nm.

Question: What about the absorption maximum (in CN(C)C=O) of the same compound?
Answer: The absorption maximum was 267 nm.

Question: What about the absorption maximum (in CO) of the same compound?
Answer: Its absorption maximum is 369 nm.

Question: And the absorption maximum (in ClC(Cl)Cl)?
Answer: The absorption maximum was 355 nm.

Question: With `Cc1c(COC(=O)c2ccc(I)cc2)n2c(OCC(=O)c3ccc(I)cc3)c(C)c(=O)n2c1=O` as the compound, how does the absorption maximum (in CCO) read?
Answer: Its absorption maximum is 387 nm.

Question: With `CCN(CC)c1ccc([N+]2=Cc3ccc4c5c(ccc4c3O[B-]2(c2ccccc2)c2ccccc2)C=[N+](c2ccc([N+](=O)[O-])cc2)[B-](c2ccccc2)(c2ccccc2)O5)cc1` as the compound, how does the absorption maximum (in C1CCOC1) read?
Answer: The absorption maximum was 547 nm.

Question: What about the absorption maximum (in CC#N) of the same compound?
Answer: Its absorption maximum is 539 nm.

Question: What about the absorption maximum (in CC(C)=O) of the same compound?
Answer: Its absorption maximum is 541 nm.

Question: What about the absorption maximum (in Cc1ccccc1) of the same compound?
Answer: The absorption maximum was 555 nm.

Question: And the absorption maximum (in ClCCl)?
Answer: Its absorption maximum is 559 nm.

Question: For `O=S(=O)([O-])c1ccccc1/C=C/c1ccc(-c2nnc(-c3ccc(/C=C/c4ccccc4S(=O)(=O)[O-])cc3)o2)cc1`, which absorption maximum (in C1CCOC1) is on record?
Answer: The absorption maximum was 346 nm.

Question: What about the absorption maximum (in CC(C)=O) of the same compound?
Answer: Its absorption maximum is 344 nm.

Question: And the absorption maximum (in CN(C)C=O)?
Answer: Its absorption maximum is 348 nm.

Question: Which absorption maximum (in ClCCl) does the source give for `c1ccc(-n2nc(-c3ccc(N4c5ccccc5Oc5ccccc54)cc3)nc2-c2ccccn2)cc1` here?
Answer: Its absorption maximum is 341 nm.

Question: For `CCC1=C(C)C(=O)n2c1cc1c(C)cc(C)n1c2=O`, which absorption maximum (in CC#N) is on record?
Answer: Its absorption maximum is 409 nm.

Question: And the absorption maximum (in CC(C)=O)?
Answer: The absorption maximum was 412 nm.

Question: And the absorption maximum (in CO)?
Answer: Its absorption maximum is 420 nm.

Question: What about the absorption maximum (in CS(C)=O) of the same compound?
Answer: Its absorption maximum is 420 nm.

Question: What about the absorption maximum (in ClC(Cl)Cl) of the same compound?
Answer: Its absorption maximum is 420 nm.

Question: And the absorption maximum (in c1ccccc1)?
Answer: Its absorption maximum is 423 nm.

Question: For `CC1=C(c2ccc(N(C)C)cc2)C(C)=[N+]2C1=C(c1c(-c3ccccn3)nc3ccccn13)c1c(C)cc(C)n1[B-]2(F)F`, which absorption maximum (in ClCCl) is on record?
Answer: Its absorption maximum is 538 nm.

Question: With `CN(C)c1ccc(C2=Nc3ccc4c(C(F)(F)F)cc(C(F)(F)F)nc4[n+]3[B-](F)(F)O2)cc1` as the compound, how does the absorption maximum (in ClCCl) read?
Answer: The absorption maximum was 480 nm.

Question: With `c1csc(-c2ccc(-c3cccs3)c3nsnc23)c1` as the compound, how does the absorption maximum (in ClC(Cl)Cl) read?
Answer: The absorption maximum was 445 nm.

Question: Which absorption maximum (in c1ccc([Si](c2ccccc2)(c2ccc(-n3c4ccccc4c4ccccc43)cc2)c2ccc(-n3c4ccccc4c4ccccc43)cc2)cc1) does the source give for `Cc1c(C)c(B(c2c(C)c(C)c(N3c4ccccc4Oc4ccccc43)c(C)c2C)c2c(C)c(C)c(N3c4ccccc4Oc4ccccc43)c(C)c2C)c(C)c(C)c1C#N` here?
Answer: The absorption maximum was 408 nm.

Question: Which results are given for `CC/C=C/C=C/C=C/C=C/CCCCCCCC(=O)O`?
Answer: absorption maximum (in C1COCCO1): 317.3 nm; absorption maximum (in CCCCCC): 313.5 nm; absorption maximum (in CCCCCCCCCC): 315.3 nm; absorption maximum (in CCCCO): 315.2 nm; absorption maximum (in CCO): 313.8 nm; absorption maximum (in CCOCC): 313.5 nm; absorption maximum (in CO): 313 nm; absorption maximum (in ClC(Cl)Cl): 319.6 nm; absorption maximum (in c1ccccc1): 320 nm

Question: With `CC1=[N+]2C(=C(Oc3cc(C)c4c(c3)CC[C@@](C)(CCC[C@H](C)CCC[C@H](C)CCCC(C)C)O4)c3ccc(C)n3[B-]2(F)F)C=C1c1cc2n(c1)[B-](F)(F)[N+]1=CC=CC1=C2c1c(C)cc(C)cc1C` as the compound, how does the absorption maximum (in C1CCCCC1) read?
Answer: The absorption maximum was 570.5 nm.

Question: And the absorption maximum (in CCOC(C)=O)?
Answer: Its absorption maximum is 575 nm.

Question: For `Cc1ccc2c(nc3c(=O)n(C)c(=O)nc-3n2C)c1C`, which absorption maximum (in CC#N) is on record?
Answer: Its absorption maximum is 448 nm.

Question: For `COc1ccc(-c2cc3c(ccc4sc5ccc6sc(-c7ccc(C#N)cc7)cc6c5c43)s2)cc1`, which absorption maximum (in ClCCl) is on record?
Answer: The absorption maximum was 383 nm.

Question: With `O=C1NC(=O)c2c1c1c3ccccc3[nH]c1c1[nH]c3ccccc3c21` as the compound, how does the absorption maximum (in C1CCOC1) read?
Answer: The absorption maximum was 400 nm.

Question: And the absorption maximum (in CC#N)?
Answer: The absorption maximum was 402 nm.

Question: What about the absorption maximum (in CC(C)OC(C)C) of the same compound?
Answer: Its absorption maximum is 391 nm.

Question: What about the absorption maximum (in CCCCOCCCC) of the same compound?
Answer: The absorption maximum was 393 nm.

Question: And the absorption maximum (in CCO)?
Answer: The absorption maximum was 405 nm.

Question: What about the absorption maximum (in CCOC(C)=O) of the same compound?
Answer: The absorption maximum was 398 nm.

Question: And the absorption maximum (in CN(C)C=O)?
Answer: The absorption maximum was 409 nm.

Question: What about the absorption maximum (in Cc1ccccc1) of the same compound?
Answer: Its absorption maximum is 398 nm.

Question: What about the absorption maximum (in ClCCl) of the same compound?
Answer: The absorption maximum was 401 nm.

Question: For `CC(=O)Nc1ccc(C2=C/C(=C\c3ccc([N+](=O)[O-])cc3)C(=O)O2)cc1`, which absorption maximum (in C1COCCO1) is on record?
Answer: Its absorption maximum is 438 nm.

Question: With `CC[n+]1c(-c2ccccc2)c2cc(N)ccc2c2ccc(N)cc21` as the compound, how does the absorption maximum (in O) read?
Answer: The absorption maximum was 480 nm.

Question: What does the source list for `Cc1cc(C)c(B(c2ccc(-c3nc4c5ccccc5c5ccccc5c4[nH]3)cc2)c2c(C)cc(C)cc2C)c(C)c1`?
Answer: absorption maximum (in C1CCOC1): 384 nm; absorption maximum (in CC(C)=O): 380 nm; absorption maximum (in CS(C)=O): 386 nm; absorption maximum (in Cc1ccccc1): 381 nm; absorption maximum (in ClCCl): 376 nm

Question: With `Cc1cccc(C2=CC3=C(c4c(C)cc(C)cc4C)c4cc(-c5cccc(C)c5)c(-c5cccc(C)c5)n4[B-](F)(F)[N+]3=C2c2cccc(C)c2)c1` as the compound, how does the absorption maximum (in C1CCCCC1) read?
Answer: Its absorption maximum is 579 nm.

Question: What about the absorption maximum (in C1CCOC1) of the same compound?
Answer: The absorption maximum was 577 nm.

Question: What about the absorption maximum (in CC#N) of the same compound?
Answer: The absorption maximum was 559 nm.

Question: What about the absorption maximum (in Cc1ccccc1) of the same compound?
Answer: The absorption maximum was 571 nm.

Question: What about the absorption maximum (in ClCCl) of the same compound?
Answer: The absorption maximum was 573 nm.

Question: Which absorption maximum (in O) does the source give for `C=CC1CN2CCC1CC2[C@H](O)c1ccnc2ccc(OC)cc12` (some centres not stated) here?
Answer: The absorption maximum was 347 nm.

Question: With `CN(C)c1ccc2c(c1)[Si](C)(C)C1=CC(=[N+](C)C)C=CC1=C2` as the compound, how does the absorption maximum (in CO) read?
Answer: Its absorption maximum is 636 nm.

Question: And the absorption maximum (in O)?
Answer: Its absorption maximum is 634 nm.

Question: With `c1ccc(N(c2ccccc2)c2ccc(-c3cncs3)cc2)cc1` as the compound, how does the absorption maximum (in CO) read?
Answer: The absorption maximum was 346 nm.

Question: For `C[Si]1(C)c2ccc(C#Cc3ccccc3)cc2C=Cc2cc(C#Cc3ccccc3)ccc21`, which absorption maximum (in ClCCl) is on record?
Answer: The absorption maximum was 346 nm.

Question: With `F[B-]1(F)n2c(c3ccccc3c2-c2ccccc2)C(c2ccccc2)=C2c3ccccc3C(c3ccccc3)=[N+]21` as the compound, how does the absorption maximum (in ClCCl) read?
Answer: The absorption maximum was 631 nm.

Question: For `COC(=O)c1cc(=O)n(C)c2cc(-c3cccc(OC)c3)sc12`, which absorption maximum (in CC#N) is on record?
Answer: Its absorption maximum is 394 nm.

Question: And the absorption maximum (in ClCCl)?
Answer: Its absorption maximum is 394 nm.
